Data on 1 compound can be found in paper PMC7306898, “Concentration-Dependent Activity of Hydromethylthionine on Clinical Decline and Brain Atrophy in a Randomized Controlled Trial in Behavioral Variant Frontotemporal Dementia” (Journal of Alzheimer's Disease, 2020).

The test system of data set [1] is bvFTD patients. In words: Frontotemporal Dementia Rating Scale (FRS), 52-week Phase III trial. In kind it is in vivo, human. The text has this: (§1) The two doses were provided in identical blister packages as visually identical oral tablets to be taken for up to 52 weeks. The primary outcome was the Addenbrookes Cognitive Examination – Revised (ACE-R). The Functional Activities Questionnaire (FAQ) and reduction in progression of whole brain atrophy were alternative co-primary outcomes. Other outcomes included: Modified Alzheimer’s Disease Cooperative Study – Clinical Global Impression of Change (Modified-CGIC) determined by a third independent rater; Frontotemporal Dementia Rating Scale (FRS); MMSE (from MMSE items incorporated into ACE-R); Addenbrookes Cognitive Examination – III (a revised version of ACE-R which excludes MMSE items subject to copyright restrictions); change in brain volume measured by MRI in frontal and temporal lobes (FTV) and lateral ventricles (LVV); and the effect of hydromethylthionine in patients with known genetic mutations associated with bvFTD. Blood was collected prospectively for the purpose of population PK analyses.
(§2) The primary analyses were specified as a mixed model, repeated-measures analysis with an unstructured covariance matrix and no imputation for missing data. […]

Data set [2] has as its system bvFTD patients. Description: Addenbrookes Cognitive Examination – Revised (ACE-R), 52-week Phase III trial TRx-237-007. It is filed as in vivo, human.
Description: The study was designed as a 52-week Phase III, randomized, controlled, double-blind, parallel-group trial conducted between May 2013 and February 2016 at 70 sites in Canada, United States, Australia, Asia, and Europe. Eligible patients had to be younger than 80 years of age with a diagnosis of bvFTD according to criteria revised by the International bvFTD Criteria Consortium [[1, 50]], with Mini-Mental Status Examination (MMSE) score greater than or equal to 20 at screening. In order to limit inclusion of bvFTD phenocopy cases, there was an additional requirement that patients had to meet the criterion of having definite brain atrophy in frontal and/or temporal lobes scoring 2 or more on a scale previously developed by Kipps et al.. Concomitant use of acetylcholinesterase inhibitors (AChEIs) or memantine (or both) was permitted provided this was at a stable dose for at least 18 weeks before randomization to minimize any potential early symptomatic effects of these treatments. Concomitant use of antidepressant, antipsychotic (except clozapine or olanzapine), and sedative medications was also permitted at stable doses where clinically feasible. Each patient had one or more study partners participate with them in the trial as informants. […] A detailed list of inclusion and exclusion criteria is in the protocol provided in the Supplementary Material. […]
as §1, with “The primary outcome was the Addenbrookes Cognitive Examination – Revised (ACE-R). The Functional Activities Questionnaire (FAQ) and reduction in progression of whole brain atrophy were alternative co-primary outcomes.” left out, “Blood was collected prospectively for the purpose of population PK analyses.” left out

Data set [3] deals with bvFTD patients. In words: Addenbrookes Cognitive Examination – III (ACE-III), 52-week Phase III trial. It is filed as in vivo, human.
Description: as §1, §2

Details of data set [4]: method as in PMID 31658058. The note with it: cited from earlier work.
The test system of data set [5] is bvFTD patients. Description: Whole brain volume (WBV) change by MRI (Boundary Shift Integral). In kind it is in vivo, human.
Description: as §1
MRI scans were obtained at screening and weeks 16, 32, and 52. The acquisition protocol was standardized across sites and all data were centrally collected, quality-controlled, and analyzed by the imaging core laboratory (Bioclinica). […] For data passing quality-control, baseline volume was automatically assessed using FreeSurfer v5.3, while volume changes were assessed using Boundary Shift Integral (whole brain, lateral ventricles) and Tensor-Based Morphometry (frontal and temporal lobes). […]
The primary analyses were specified as a mixed model, repeated-measures analysis with an unstructured covariance matrix and no imputation for missing data. The model included visit (three levels corresponding to assessments at weeks 16, 32, and 52), treatment group (two levels, 4 mg or 100 mg twice a day), a visit by treatment group interaction term, use of AD-labelled medications (two levels, using or not using), geographic region (three levels: North America, Asia/Australia, Europe), and baseline value of the variable analyzed. […]

Data set [6] relates to bvFTD patients. In words: Modified-CGIC, 52-week Phase III trial. It is filed as in vivo, human.
Description: as §1
The primary analyses were specified as a mixed model, repeated-measures analysis with an unstructured covariance matrix and no imputation for missing data. The model included visit (three levels corresponding to assessments at weeks 16, 32, and 52), treatment group (two levels, 4 mg or 100 mg twice a day), a visit by treatment group interaction term, use of AD-labelled medications (two levels, using or not using), geographic region (three levels: North America, Asia/Australia, Europe), and baseline value of the variable analyzed. The individual comparisons were implemented through contrasts. The Bonferroni-Holm correction was used to take account of multiplicity arising from alternative co-primary outcomes (FAQ and whole brain atrophy). We used the same method for all secondary analyses in predefined gated sequences such that no further adjustment of alpha (0.05) was needed.
The concentration-response analyses used a Mixed-effect Model Repeat Measurement (MMRM) with per-subject correction and an unstructured covariance matrix according to the following formula: […]

Data set [7] relates to subjects with AD or bvFTD. On the set-up: method as in Developmental Safety Update Report #3. Particulars: 1713 subjects randomized to LMTM (or matching placebo), blinded, as of 14 October 2014 ref Developmental Safety Update Report #3; cited from earlier work.
The mark [8] stands for this setting: 8 mg/day (n = 110), modeled change from baseline at 52 weeks.
The mark [9] stands for this setting: 200 mg/day (n = 104) vs 8 mg/day, 52 weeks.
The mark [10] stands for this setting: 8 mg/day, plasma levels above vs below […] threshold.

On to `CN(C)c1ccc2c(c1)Sc1cc(N(C)C)ccc1N2` [hydromethylthionine, leuco-methylthioninium bis(hydromethanesulphonate)], for which, in the data set on bvFTD patients [1] (setting [8]), the “FRS: Decline±SEM for LMTM 8 mg/day group” value was “–0.1240±0.0136”. Also, the “FRS: Difference±SEM from LMTM 8 mg/day for 200 mg/day” value with bvFTD patients [1] (setting [9]) was found to be 0.0075±0.0206. For the same compound, the “ACE-R: Decline±SEM for LMTM 8 mg/day group” value in the data set with bvFTD patients [2] (8 mg/day (n = 110), modeled change from baseline at 52 weeks, MITT) is listed as “–9.98±1.39”. For the same compound, in the data set with bvFTD patients [2] (setting [10]), the “reduction in decline on the ACE-R scale” value is 45%. For the same compound, in the data set on bvFTD patients [2] (200 mg/day (n = 104) vs 8 mg/day, 52 weeks, MITT), the “ACE-R: Difference±SEM from LMTM 8 mg/day for 200 mg/day” value is given as “–0.49±2.10”. The “ACE-III: Decline±SEM for LMTM 8 mg/day group” value with bvFTD patients [3] (setting [8]) is reported as “–10.70±1.55”. Also, in the data set on bvFTD patients [3] (setting [9]), the “ACE-III: Difference±SEM from LMTM 8 mg/day for 200 mg/day” value was determined as 0.44±2.27. In data set [4], the “brain:plasma ratio compared to MTC” value is at least 60 fold. For the same compound, the “WBV: Decline±SEM for LMTM 8 mg/day group” value in the data set with bvFTD patients [5] (8 mg/day, modeled change from baseline at 52 weeks) is recorded as “–21.64±1.56 cm^3”. For the same compound, the “reduction in whole brain atrophy” value with bvFTD patients [5] (setting [10]) is 42%. Besides, in the data set with bvFTD patients [5] (200 mg/day vs 8 mg/day, 52 weeks), the “WBV: Difference±SEM from LMTM 8 mg/day for 200 mg/day” value is given as “–1.35±2.32 cm^3”. Moreover, the “CGIC: Decline±SEM for LMTM 8 mg/day group” value with bvFTD patients [6] (8 mg/day (n = 110), 52 weeks) is on record as “–1.05±0.11”. Moreover, the “reduction in decline, Modified-CGIC” value in the data set with bvFTD patients [6] (setting [10]) is 48%. Moreover, the “CGIC: Difference±SEM from LMTM 8 mg/day for 200 mg/day” value with bvFTD patients [6] (setting [9]) is “–0.04±0.16”. Moreover, in data set [7], the “cases of possible serotonin toxicity reported as AEs” value was 2.
